Laboratory results as given in ChEMBL document CHEMBL6071133, “Discovery of novel penetrating peptides able to target human leukemia and lymphoma for enhanced PROTAC delivery” (Eur J Med Chem, 2024).

Legend:
[1] = Drug uptake in human THP-1 cells assessed as increase in fluorescence intensity at 10 umol/L incubated for 2 hrs by cell imaging based fluorescence microscopic analysis; assay type: ADME; conditions: thp-1, 2 h, 10 µM, dose 10 µmol/L
[2] = Drug uptake in human CCRF-CEM cells assessed as increase in fluorescence intensity at 5 umol/L measured for 5 to 60 mins by flow cytometry; assay type: ADME, cell-based; conditions: 5 µM, time 5-60 min, dose 5 µmol/L
[3] = Drug uptake in human CCRF-CEM cells assessed as increase in fluorescence intensity at 1 to 10 uM incubated for 2 hrs by flow cytometry; assay type: ADME, cell-based; conditions: dose 1-10 µM
[4] = Drug uptake in human CCRF-CEM cells assessed as increase in fluorescence intensity at 1 to 10 umol/L incubated for 2 hrs by cell imaging based fluorescence microscopic analysis; assay type: ADME; conditions: dose 1-10 µmol/L
[5] = Drug uptake in human CCRF-CEM cells assessed as membrane penetration by measuring increase in fluorescence intensity at 5 umol/L incubated for 2 hrs by flow cytometry relative to C9C; assay type: ADME, cell-based; conditions: 5 µM, dose 5 µmol/L
[6] = Drug uptake in human CCRF-CEM cells assessed as increase in fluorescence intensity at 5 umol/L measured for 60 to 240 mins by flow cytometry; assay type: ADME, cell-based; conditions: 5 µM, TDE = time-dependent effect, time 60-240 min, dose 5 µmol/L
[7] = Drug uptake in human KU812 cells assessed as perinuclear distribution and colocalization with nucleus at 10 umol/L incubated for 2 hrs by confocal laser microscopy; assay type: ADME, cell-based; conditions: ku812, 2 h, 10 µM, dose 10 µmol/L
[8] = Drug uptake in human CCRF-CEM cells assessed as perinuclear distribution and colocalization with nucleus at 10 umol/L incubated for 2 hrs by confocal laser microscopy; assay type: ADME, cell-based; conditions: 10 µM, dose 10 µmol/L
[9] = Drug uptake in human K562 cells assessed as perinuclear distribution and colocalization with nucleus at 10 umol/L incubated for 2 hrs by confocal laser microscopy; assay type: ADME, cell-based; conditions: k562, 2 h, 10 µM, dose 10 µmol/L

Drug uptake [1]: Active | Drug uptake [2]: Active | Drug uptake [3]: Dose-Dependent Effect | Drug uptake [4]: Active | fold change (FC) [5]: 2.97 | Drug uptake [6]: Tde | Drug uptake [7]: Active | Drug uptake [8]: Active | Drug uptake [9]: Active
Structure (SMILES): CC(C)C[C@@H]1NC(=O)[C@H](Cc2csc3ccccc23)NC(=O)[C@@H](Cc2ccccc2)NC(=O)[C@H](Cc2ccccc2)NC(=O)[C@H](CCCNC(=N)N)NC(=O)[C@H](CCCCN)NC(=O)[C@H](CCC(=O)O)NC(=O)[C@H](CO)NC(=O)[C@H](CCCNC(=N)N)NC1=O
